In brackets after ≈: the same amount, converted by molar mass. Like-named read-outs stand apart in the source and are kept apart here.
Tested on: M. tuberculosis strains
Experiment: Minimum Inhibitory Concentration (MIC) against M. tuberculosis strains, resazurin microtiter plate assay
Format: cell-based, Mycobacterium tuberculosis
[1] = Mycobacterium tuberculosis, Table 1A, C2 SAR with fluorophenyl, Middlebrook 7H9, 37° C. six days, resazurin fluorescence after 48 hours, read-out: MIC90
[2] = Mycobacterium tuberculosis, Table 2, C4 SAR, Middlebrook 7H9, 37° C. six days, resazurin fluorescence after 48 hours, read-out: MIC90
[3] = Mycobacterium tuberculosis, Table 3, C4 SAR, Middlebrook 7H9, 37° C. six days, resazurin fluorescence after 48 hours, read-out: MIC90
[4] = Mycobacterium tuberculosis, Table 4, C6 SAR, Middlebrook 7H9, 37° C. six days, resazurin fluorescence after 48 hours, read-out: MIC90

Cc1cc2nc(C(=O)NCCO)cc(-c3ccccc3F)c2c(C)c1-c1ccncc1 [Compound 38]
MIC90 [1]: 1.6 µM (≈ 0.665 µg/mL)

Cc1cc2nc(C(=O)N[C@H](C)CO)cc(-c3ccccc3F)c2c(C)c1-c1ccncc1 [Compound 39]
MIC90 [1]: 0.6 µM (≈ 0.258 µg/mL)

Cc1cc2nc(C(=O)N[C@@H](C)CO)cc(-c3ccccc3F)c2c(C)c1-c1ccncc1 [Compound 40]
MIC90 [1]: 0.3 µM (≈ 0.129 µg/mL)

Cc1cc2nc(C(=O)N[C@H](C)CCO)cc(-c3ccccc3F)c2c(C)c1-c1ccncc1 [Compound 41]
MIC90 [1]: 0.16 µM (≈ 0.071 µg/mL)

Cc1cc2nc(C(=O)N[C@@H](C)CCO)cc(-c3ccccc3F)c2c(C)c1-c1ccncc1 [Compound 42]
MIC90 [1]: 0.16 µM (≈ 0.071 µg/mL)

Cc1cc2nc(C(=O)NC[C@H](O)CO)cc(-c3ccccc3F)c2c(C)c1-c1ccncc1 [Compound 43]
MIC90 [1]: 0.8 µM (≈ 0.356 µg/mL)

Cc1cc2nc(C(=O)NC[C@@H](O)CO)cc(-c3ccccc3F)c2c(C)c1-c1ccncc1 [Compound 44]
MIC90 [1]: 0.6 µM (≈ 0.267 µg/mL)

Cc1cc2nc(C(=O)NC3CCN(C)C3)cc(-c3ccccc3F)c2c(C)c1-c1ccncc1 (centres unmarked) [Compound 45]
MIC90 [1]: 1.25 µM (≈ 0.568 µg/mL)

Cc1cc2nc(C(=O)NC3CCN(C)CC3)cc(-c3ccccc3F)c2c(C)c1-c1ccncc1 [Compound 46]
MIC90 [1]: 1.25 µM (≈ 0.586 µg/mL)

Cc1cc2nccc(-c3ccccc3)c2c(C)c1-c1ccc(CN2CCOCC2)cc1 [Compound 47]
MIC90 (Mycobacterium tuberculosis): 0.45 µM (≈ 0.184 µg/mL) | MIC90 (Table 4, C6 SAR, Middlebrook 7H9, 37° C. six days, resazurin fluorescence after 48 hours, read-out: MIC90): 0.45 µM (≈ 0.184 µg/mL)

Cc1cc2nccc(-c3ccccc3Cl)c2c(C)c1-c1ccc(CN2CCOCC2)cc1 [Compound 48]
MIC90 (Mycobacterium tuberculosis): 0.3 µM (≈ 0.133 µg/mL)

Cc1cc2nccc(-c3cccc(Cl)c3)c2c(C)c1-c1ccc(CN2CCOCC2)cc1 [Compound 49]
MIC90 (Mycobacterium tuberculosis): 0.6 µM (≈ 0.266 µg/mL)

Cc1cc2nccc(-c3ccc(Cl)cc3)c2c(C)c1-c1ccc(CN2CCOCC2)cc1 [Compound 50]
MIC90 (Mycobacterium tuberculosis): 80 µM (≈ 35.4 µg/mL)

COc1cccc(-c2ccnc3cc(C)c(-c4ccc(CN5CCOCC5)cc4)c(C)c23)c1OC [Compound 51]
MIC90 (Mycobacterium tuberculosis): > 40 µM

Cc1cc2nccc(-c3ccccc3C#N)c2c(C)c1-c1ccc(CN2CCOCC2)cc1 [Compound 52]
MIC90 [2]: 2.5 µM (≈ 1.08 µg/mL)

COc1cccc(-c2ccnc3cc(C)c(-c4ccc(CN5CCOCC5)cc4)c(C)c23)c1Cl [Compound 53]
MIC90 [2]: 10 µM (≈ 4.73 µg/mL)

CCN(CC)Cc1ccccc1-c1ccnc2cc(C)c(-c3ccc(CN4CCOCC4)cc3)c(C)c12 [Compound 54]
MIC90 [2]: 2.5 µM (≈ 1.23 µg/mL)

Cc1cc2nccc(-c3ccccc3CO)c2c(C)c1-c1ccc(CN2CCOCC2)cc1 [Compound 55]
MIC90 [2]: 2.5 µM (≈ 1.1 µg/mL)

Cc1cc2nccc(-c3ccccc3C(N)=O)c2c(C)c1-c1ccc(CN2CCOCC2)cc1 [Compound 56]
MIC90 [2]: 20 µM (≈ 9.03 µg/mL)

Cc1cc2nccc(-c3ccccc3C(=O)O)c2c(C)c1-c1ccc(CN2CCOCC2)cc1 [Compound 57]
MIC90 (Mycobacterium tuberculosis): 40 µM (≈ 18.1 µg/mL)

Cc1cccc(C)c1-c1ccnc2cc(C)c(-c3ccc(CN4CCOCC4)cc3)c(C)c12 [Compound 58]
MIC90 (Mycobacterium tuberculosis): 5 µM (≈ 2.18 µg/mL)

COc1ccncc1-c1ccnc2cc(C)c(-c3ccc(CN4CCOCC4)cc3)c(C)c12 [Compound 59]
MIC90 [2]: 2.5 µM (≈ 1.1 µg/mL)

COc1ncccc1-c1ccnc2cc(C)c(-c3ccc(CN4CCOCC4)cc3)c(C)c12 [Compound 60]
MIC90 [2]: 2.5 µM (≈ 1.1 µg/mL)

Cc1cc(-c2ccnc3cc(C)c(-c4ccc(CN5CCOCC5)cc4)c(C)c23)n(C)n1 [Compound 61]
MIC90 [2]: > 40 µM

Cc1cc2nccc(-c3cccnc3C#N)c2c(C)c1-c1ccc(CN2CCOCC2)cc1 [Compound 62]
MIC90 (Mycobacterium tuberculosis): 7.5 µM (≈ 3.26 µg/mL)

Cc1cc2nccc(-c3ccnn3C)c2c(C)c1-c1ccc(CN2CCOCC2)cc1 [Compound 63]
MIC90 (Mycobacterium tuberculosis): 2.2 µM (≈ 0.908 µg/mL)

Cc1cc2nccc(-c3cncnc3)c2c(C)c1-c1ccc(CN2CCOCC2)cc1 [Compound 64]
MIC90 [2]: 2.5 µM (≈ 1.03 µg/mL)

Cc1cc2nccc(-c3cncnc3C)c2c(C)c1-c1ccc(CN2CCOCC2)cc1 [Compound 65]
MIC90 [2]: 5 µM (≈ 2.12 µg/mL)

CNC(=O)c1cc(-c2cccc(Cl)c2)c2c(C)c(-c3ccncc3)c(C)cc2n1 [Compound 66]
MIC90 (Mycobacterium tuberculosis): 2.5 µM (≈ 1 µg/mL)

CNC(=O)c1cc(-c2ccc(Cl)cc2)c2c(C)c(-c3ccncc3)c(C)cc2n1 [Compound 67]
MIC90 (Mycobacterium tuberculosis): 40 µM (≈ 16.1 µg/mL)

CNC(=O)c1cc(-c2cncnc2)c2c(C)c(-c3ccncc3)c(C)cc2n1 [Compound 68]
MIC90 [3]: 10 µM (≈ 3.69 µg/mL)

CNC(=O)c1cc(N2CCCCC2)c2c(C)c(-c3ccncc3)c(C)cc2n1 [Compound 69]
MIC90 (Mycobacterium tuberculosis): 5 µM (≈ 1.87 µg/mL)

CNC(=O)c1cc(N2CCOCC2)c2c(C)c(-c3ccncc3)c(C)cc2n1 [Compound 70]
MIC90 [3]: 20 µM (≈ 7.53 µg/mL)

CNC(=O)c1cc(N2CCCC2)c2c(C)c(-c3ccncc3)c(C)cc2n1 [Compound 71]
MIC90 [3]: > 50 µM

Cc1cc2nccc(-c3ccccc3)c2c(C)c1-c1ccncc1 [Compound 72]
MIC90 [4]: 5 µM (≈ 1.55 µg/mL)

Cc1cc2nccc(-c3ccccc3)c2c(C)c1-c1cncnc1 [Compound 73]
MIC90 [4]: 40 µM (≈ 12.5 µg/mL)

Cc1cc2nccc(-c3ccccc3)c2c(C)c1-c1cnco1 [Compound 74]
MIC90 [4]: 31 µM (≈ 9.31 µg/mL)
